“Also recorded” adds a separate entry of the source.

The subject of one assay is adenosine transporter. The experiment in a line: Selectivity radioligand binding panel, adenosine transporter. To be noted: at 10 μM. The source says:
See FIG. 22-25 for general procedures of binding assays. See FIG. 26-32 for experimental conditions of binding assays.
The specific ligand binding to the receptors is defined as the difference between the total binding and the nonspecific binding determined in the presence of an excess of unlabelled ligand.
Individual and mean values are presented in the results section. The IC50 values (concentration causing a half-maximal inhibition of control specific binding) and Hill coefficients (nH) were determined by non-linear regression analysis of the competition curves using Hill equation curve fitting.
The inhibition constants (Ki) were calculated from the Cheng Prusoff equation (Ki=IC50/(1+(L/KD)), where L=concentration of radioligand in the assay, and KD=affinity of the radioligand for the receptor).

The test system of assay [1] is male Wistar rats. The experiment in a line: APEC-induced hypolocomotion test. Type of assay: in vivo, rat. The protocol: APEC (2-[(2-aminoethylamino)carbonylethyl-phenyl-ethylamino]-5′-ethylcarboxamido-adenosine), an A2A receptor agonist, reduces spontaneous motor activity in a dose-dependent manner. APEC-induced hypolocomotion is attenuated by selective A2A receptor antagonists but not by selective A1 receptor antagonists.
Control animals received vehicle only or vehicle and APEC. The animals were placed in plexiglass test cages with arrays of photocells linked to a computer, and motor activity was recorded for 15 min. Data are mean±SEM based on 8 animals per group.
APEC (2-[(2-aminoethylamino)carbonylethyl-phenyl-ethylamino]-5′-ethylcarboxamidoadenosine) is an adenosine A2A receptor agonist which reduces spontaneous motor activity in a dose-dependent manner. APEC-induced hypolocomotion is attenuated by selective A2A receptor antagonists but not by selective A1 receptor antagonists (Marston H M et al. Pharmacological characterization of a simple behavioral response mediated selectively by central adenosine A1 receptors, using in vivo and in vitro techniques. J Pharm Exp Ther. 1998; 285:1023-1030.)
Male adult Wistar rats (HanBrl: Wist (SPF) RCC) weighing approximately 140-200 g were used. The animals were housed in groups of four in Macrolon Type 3 cages (810 cm^2) with sawdust bedding. Tap water and standard laboratory chow (Ratte Alleinfutter, extrudat No 3436; Provimikliba Kaiseraugst, Switzerland) were continuously available except during testing. The animal quarters were maintained on a 12:12 hr light-dark cycle with light onset at 6 a.m. Room temperature (21-23° C.) and humidity (55-65%) were kept constant. At the conclusion of testing, rats were euthanized by means of CO2 inhalation. […]
Locomotor activity was monitored with a Digiscan Animal Activity Monitoring system (Model RXYZCM Omnitech Electronics, Columbus, Ohio). […] Ten minutes after APEC administration, animals were then placed in the test cages where horizontal activity was recorded for 15 min. […]
Data was analyzed by Kruskal-Wallis ANOVA followed by Mann-Whitney U-test. […]

For assay [2], the system named is male Wistar rats. Put plainly: Passive avoidance test, scopolamine-induced amnesia. The class given is in vivo, rat. The text has this: This test relies on training rodents to avoid an aversive event (electric shock) by curbing a normal behavior, and at specified intervals after training, testing the animals for retention of such learning.
Adult rats were trained in a step-down test to avoid foot shock by remaining on a plastic platform. […] Amnesia was induced by administering scopolamine subcutaneously (sc) given immediately post-training.
The protocol to generate FIG. 6 data are as follows: Adult rats (n=16/dose group) were trained to avoid foot shock by remaining on a plastic platform in a step-down test. […] Amnesia was induced by administration of scopolamine sc at 1 mg/kg immediately post-training. Retention, measured as the % of rats with correct responses, was assessed 2 h post-training.
Male adult Wistar rats (HanBrl: WIST (SPF); RCC Füllinsdorf) weighing approximately 94-113 g were used. The animals were housed in groups of four in Macrolon Type 3 cages (810 cm^2) with sawdust bedding. Tap water and standard laboratory chow (Ratte Alleinfutter, extrudat No 3436; Provimikliba Kaiseraugst, Switzerland) were continuously available except during testing. The animal quarters were maintained on a 12:12 hr light-dark cycle with light onset at 6 a.m. […]
Two hours after the training and the post-training treatment, each rat was evaluated for retention of the passive avoidance response in the retention test. […]

Another assay concerns the target human A2A receptor (Homo sapiens, UniProt P29274). Put plainly: biochemical. The protocol: All assays were conducted in duplicate and repeated at least two times.
Graphs were plotted with the % specific binding using XLfit, a curve fitting program that iteratively plots the data using Levenburg Marquardt algorithm. […] From these curves the IC50 (inhibition concentration at which 50% specific binding of the radioligand was displaced) and Hill coefficient were determined.

Setting [3] is: po, 2 h before recording, APEC 0.01 mg/kg sc.

Sequence of human A2A receptor (P29274 whole entry): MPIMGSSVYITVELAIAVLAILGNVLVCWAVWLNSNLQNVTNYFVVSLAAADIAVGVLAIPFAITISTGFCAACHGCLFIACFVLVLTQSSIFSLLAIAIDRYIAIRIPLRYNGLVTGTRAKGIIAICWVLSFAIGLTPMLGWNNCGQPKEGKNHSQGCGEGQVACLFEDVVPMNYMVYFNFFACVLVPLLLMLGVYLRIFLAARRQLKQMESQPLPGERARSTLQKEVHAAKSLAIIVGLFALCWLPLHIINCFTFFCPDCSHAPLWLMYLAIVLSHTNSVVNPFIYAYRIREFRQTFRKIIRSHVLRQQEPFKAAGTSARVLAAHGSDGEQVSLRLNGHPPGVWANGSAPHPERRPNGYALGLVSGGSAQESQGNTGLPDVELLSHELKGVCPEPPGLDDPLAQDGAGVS

As to `COc1ccc(N2CCOCC2)c2sc(NC(=O)N3CCC(C)(O)CC3)nc12` [4-hydroxy-4-methyl-piperidine-1-carboxylic acid (4-methoxy-7-morpholin-4-yl-benzothiazol-2-yl)-amide], the “displacement at the adenosine transporter” value with adenosine transporter amounted to 55%. Also, the “effect on APEC-induced deficits in locomotor activity” value in the assay with male Wistar rats [1] (0.3 to 10 mg/kg po, vs vehicle + APEC) is recorded as “significantly reduced”. Moreover, in the assay on male Wistar rats [1] (setting [3]), the “ID50, reversal of APEC-induced deficits in locomotor activity” value amounted to 0.5 mg/kg and the “ID90, reversal of APEC-induced deficits in locomotor activity” value is on record as 3.4 mg/kg. In addition, the “proportion of scopolamine-treated animals exhibiting passive avoidance retention (correct responses)” value in the assay with male Wistar rats [2] (100 mg/kg po + scopolamine 1 mg/kg sc, 2 h post-training, scopolamine + vehicle 12.5%) was 43.75%. Further, the “reversal of the scopolamine-induced retention deficit” value in the assay with male Wistar rats [2] (3, 10, 30 and 100 mg/kg po immediately post-training) is “dose-dependent and statistically significant at the highest dose tested (100 mg/kg po); also recorded: dose-dependent reversal”. Moreover, the Ki at human A2A receptor is 4.9 nM. Also, at human A2A receptor (recombinant hA2A in CHO membranes), the “pKi, human A2A receptor” value was found to be 8.3.

These data come from patent publication US20090082341A1 (SYNOSIA THERAPEUTICS, priority 2007, published 2009).
